Assay results as given in US12692254B2, “Benzimidazole inhibitors of PAD enzymes” (BRISTOL-MYERS SQUIBB COMPANY, priority 2018, dated 2026).

Target: human PAD4 (hPAD4) (Homo sapiens, UniProt Q9UM07)
Assay: RFMS human PAD4 functional assay (rapid-fire mass spectrum)
Type: biochemical
Conditions: 5 nM hPAD4 enzyme, 250 μM BAEE, 50 μM Calcium; 30 min preincubation, 90 min reaction at 37° C.
Summary of the method: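 PAD4 (10 nM) preincubated 30 min with compound (top final 50 μM), then BAEE substrate added in pH 7.5 HEPES buffer with DTT, 50 μM calcium, TPEN; 90 min at 37° C. After TCA quench, citrulline derivatized with phenyl glyoxal (4 mM final, 30 min, 37° C) and quantified by RapidFire MS against internal standard.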

Chain of human PAD4 (hPAD4) (Q9UM07 whole entry): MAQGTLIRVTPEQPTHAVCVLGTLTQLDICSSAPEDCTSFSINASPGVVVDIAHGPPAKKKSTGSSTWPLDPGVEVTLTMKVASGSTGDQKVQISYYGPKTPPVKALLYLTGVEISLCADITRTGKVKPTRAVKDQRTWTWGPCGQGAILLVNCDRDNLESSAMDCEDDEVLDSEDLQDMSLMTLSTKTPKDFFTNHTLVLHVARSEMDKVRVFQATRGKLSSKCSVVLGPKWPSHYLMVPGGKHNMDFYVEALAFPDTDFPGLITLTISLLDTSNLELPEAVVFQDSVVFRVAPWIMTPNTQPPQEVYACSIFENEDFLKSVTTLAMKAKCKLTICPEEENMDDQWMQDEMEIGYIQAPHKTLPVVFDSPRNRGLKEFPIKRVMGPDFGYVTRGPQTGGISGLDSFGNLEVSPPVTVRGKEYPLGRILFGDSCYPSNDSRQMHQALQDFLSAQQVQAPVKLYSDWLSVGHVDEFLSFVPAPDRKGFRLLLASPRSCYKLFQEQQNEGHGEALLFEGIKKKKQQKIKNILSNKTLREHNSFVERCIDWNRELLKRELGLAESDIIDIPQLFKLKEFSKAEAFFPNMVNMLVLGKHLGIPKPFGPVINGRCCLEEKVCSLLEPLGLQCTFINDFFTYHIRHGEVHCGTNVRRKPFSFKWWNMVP

SMILES	IC50 [µM]
COc1cc(C(=O)N2CC(Cn3c(-c4cc5ccccc5n4CC4CC4)nc4cc(C(=O)N5CC6CCC5[C@@H]6N)cc(OC)c43)C2)ccn1 (stereo partly drawn) [Example 417, (7R)-2-{2-[1-(cyclopropylmethyl)-1H-indol-2-yl]-7-methoxy-1-{[1-(2-methoxypyridine-4-carbonyl)azetidin-3-yl]methyl}-1H-1,3-benzodiazole-5-carbonyl}-2-azabicyclo[2.2.1]heptan-7-amine]	0.011
COc1cc(C(=O)N2C[C@H]3CC[C@@H]2[C@@H]3N)cc2nc(-c3cc4cccnc4n3CC3CC3)n(CC3CN(S(=O)(=O)C4CC4)C3)c12 [Example 332, (1R,4R,7R)-2-(1-{[1-(cyclopropanesulfonyl)azetidin-3-yl]methyl}-2-[1-(cyclopropylmethyl)-1H-pyrrolo[2,3-b]pyridin-2-yl]-7-methoxy-1H-1,3-benzodiazole-5-carbonyl)-2-azabicyclo[2.2.1]heptan-7-amine]	0.219
COc1cc(C(=O)N2C[C@H]3CC[C@@H]2[C@@H]3N)cc2nc(-c3cc4ccccc4n3CC3CC3)n(CC3CN(c4cncnc4C#N)C3)c12 [Example 19, 5-[3-({5-[(1R,4R,7R)-7-amino-2-azabicyclo[2.2.1]heptane-2-carbonyl]-2-[1-(cyclopropylmethyl)-1H-indol-2-yl]-7-methoxy-1H-1,3-benzodiazol-1-yl}methyl)azetidin-1-yl]pyrimidine-4-carbonitrile]	0.055
COc1cc(C(=O)N2C[C@H]3CC[C@@H]2[C@@H]3N)cc2nc(-c3cc4cccnc4n3CC3CC3)n(CC3CN(C(=O)c4ccnc(C)n4)C3)c12 [Example 119, (1R,4R,7R)-2-{2-[1-(cyclopropylmethyl)-1H-pyrrolo[2,3-b]pyridin-2-yl]-7-methoxy-1-{[1-(2-methylpyrimidine-4-carbonyl)azetidin-3-yl]methyl}-1H-1,3-benzodiazole-5-carbonyl}-2-azabicyclo[2.2.1]heptan-7-amine]	0.069
COc1cc(C(=O)N2CC3CCC2[C@@H]3N)cc2nc(-c3cc4cccnc4n3CC3CC3)n(CC3CCN(C(=O)c4ccnc(C#N)c4)CC3)c12 (stereo partly drawn) [Example 200, 4-[4-({5-[(1R,4R,7R)-7-amino-2-azabicyclo[2.2.1]heptane-2-(cyclopropylmethyl)-1H-pyrrolo[2,3-b]pyridin-2-yl]-7-methoxy-1H-1,3-benzodiazol-1-yl}methyl)piperidine-1-carbonyl]pyridine-2-carbonitrile]	0.198
COc1cc(C(=O)N2CC3CCC2[C@@H]3N)cc2nc(-c3cc4ccccc4n3CC3CC3)n(CC3CC(=O)N(C)C3)c12 (stereo partly drawn) [Example 474, 4-({5-[(7R)-7-amino-2-azabicyclo[2.2.1]heptane-2-carbonyl]-2-[1-(cyclopropylmethyl)-1H-indol-2-yl]-7-methoxy-1H-1,3-benzodiazol-1-yl}methyl)-1-methylpyrrolidin-2-one]	0.149
COc1cc(C(=O)N2CC(Cn3c(-c4cc5cccnc5n4CC4CC4)nc4cc(C(=O)N5CC6CCC5[C@@H]6N)cc(OC)c43)C2)ccn1 (stereo partly drawn) [Example 441, (7R)-2-{2-[1-(cyclopropylmethyl)-1H-pyrrolo[2,3-b]pyridin-2-yl]-7-methoxy-1-{[1-(2-methoxypyridine-4-carbonyl)azetidin-3-yl]methyl}-1H-1,3-benzodiazole-5-carbonyl}-2-azabicyclo[2.2.1]heptan-7-amine]	0.038
COc1cc(C(=O)N2CC3CCC2[C@@H]3N)cc2nc(-c3cc4cccnc4n3CC3CC3)n(C3CN(S(=O)(=O)c4ccc(C#N)cc4)C3)c12 (stereo partly drawn) [Example 339, 4-[(3-{5-[(1R,4R,7R)-7-amino-2-azabicyclo[2.2.1]heptane-2-carbonyl]-2-[1-(cyclopropylmethyl)-1H-pyrrolo[2,3-b]pyridin-2-yl]-7-methoxy-1H-1,3-benzodiazo1-1-yl}azetidin-1-yl)sulfonyl]benzonitrile]	0.536
